Laboratory results reported in the NIST ThermoML archive (doi:10.1021/je800863c).
Numbers after ± are expanded uncertainties.

Conditions: for surface tension liquid-gas: Pendant drop shape; for viscosity / mass density: 101.33 kPa, Liquid; for viscosity: Falling or rolling sphere viscometry; for mass density: Vibrating tube method

Row | Compound | surface tension liquid-gas (298.15 K) [mN/m] | viscosity (298.15 K) [mPa·s] | mass density (298.15 K) [kg/m3] | surface tension liquid-gas (313.15 K) [mN/m] | viscosity (313.15 K) [mPa·s] | mass density (313.15 K) [kg/m3]
1 | CCCCn1cc[n+](C)c1.CCOS(=O)(=O)[O-] [1-butyl-3-methyl-1H-imidazolium ethyl sulfate] | 36.38 ± 0.51 | 379.1 ± 33 | 1198.93 ± 1.3 | 33.91 ± 0.48 | 164 ± 12 | 1188.69 ± 1.2
2 | CCCCCCCC[n+]1ccn(C)c1.COS(=O)(=O)[O-] [1-methyl-3-octylimidazolium methyl sulfate] | 30.41 ± 0.44 | – | 1114.47 ± 1.1 | 30.03 ± 0.43 | 180.6 ± 15 | 1104.64 ± 1.1
3 | CCCCCCn1cc[n+](C)c1.COS(=O)(=O)[O-] [1-hexyl-3-methylimidazolium methyl sulfate] | 33.59 ± 0.48 | 383 ± 34 | 1168.83 ± 1.2 | 33.54 ± 0.48 | 164.3 ± 12 | 1158.87 ± 1.2
4 | CCCCCCn1cc[n+](C)c1.CCOS(=O)(=O)[O-] [1-hexyl-3-methylimidazolium ethyl sulfate] | 31.77 ± 0.45 | 589 ± 57 | 1150.6 ± 1.2 | 29.63 ± 0.43 | 236 ± 19 | 1140.6 ± 1.1
5 | COS(=O)(=O)[O-].Cn1cc[n+](C)c1 [1,3-dimethylimidazolium methylsulfate] | 59.42 ± 0.8 | 75.5 ± 4.7 | 1328.38 ± 1.6 | 58.99 ± 0.8 | 40.8 ± 2.5 | 1317.85 ± 1.6
6 | CCOS(=O)(=O)[O-].CCn1cc[n+](C)c1 [1-ethyl-3-methylimidazolium ethyl sulfate] | – | 91.8 ± 6.2 | 1236.26 ± 8.3 | 46.78 ± 1.2 | 48.5 ± 3.2 | 1226.79 ± 8.2
7 | CCCCn1cc[n+](C)c1.COS(=O)(=O)[O-] [1-butyl-3-methylimidazolium methyl sulfate] | 43.3 ± 1.2 | – | 1212.95 ± 8 | 42.09 ± 1.1 | 104.2 ± 7.7 | 1199.75 ± 7.8
8 | CCCCCCCC[n+]1ccn(C)c1.CCOS(=O)(=O)[O-] [1-methyl-3-octylimidazolium ethyl sulfate] | 28.67 ± 0.41 | – | 1115.93 ± 1.1 | 27.94 ± 0.41 | 275.2 ± 25 | 1106.2 ± 1.1
